In patent US8557733B2, “Composition for regenerating and stimulating growth of plants and for adapting plants to different stress factors” (Mitotech S.A., priority 2006, dated 2013):
Entries after “also recorded” stand apart in the source; their conditions may differ. One block for each compound: values may come before it.

Assays:
[1] = test system: maize callus cultures; details: added to nutrient medium for callus initiation; cited from earlier work
[2] = test system: wheat tussue culture; details: wheat tissue culture; cited from earlier work
[3] = test system: sugar cane calli; assay: Shoot formation and plant regeneration from sugar cane calli; assay type: cell-based
Protocol: (§1) In this work, calli and explants of tobacco, sugar cane, maize, lucerne, potato and tomatoes were used. Calli were incubated at Petri dishes containing agarized Murashige-Skoog medium with […] and 1 mg/L 2,4-dichlorophenoxyacetic acid. The cultivation was carried out at temperature 26° C., illumination intensity of 2 cd and the length of daylight of 16 hours. SkQ1 was added to autoclaved and cooled (up to 45° C.) nutrient medium immediately before callus planting. SkQ1 at concentrations of 0, 1.5, 5, 10, 20, 30 and 50 nM was used. Increase of callus green weight, a fraction of calli with shoots and roots and an average number of organs per a morphogenetic callus were taken into account after one month of cultivation.
At the same time, development of shoots of calli transferred onto regeneration medium from medium without SkQ1 has been at the very initial stage.
To produce normal plants, sugar cane shoots formed by 10 nM SkQ1 were transferred onto rootage agarized medium containing the same optimum SkQ1 concentration (10 nM). After root formation, the plants were transferred into water medium and then displanted into the ground. Estimation of the plant state was performed at every stage.

[4] = test system: tobacco leaf explants; assay: Callus formation (dedifferentiation) and root formation in tobacco leaf explants; assay type: cell-based; details: 0.6 μM SkQ1
Protocol: Effect of SkQ1 on callus formation (dedifferentiation) in tobacco leaf explants was investigated. Sterile leaf disks of plants Nicotiana tabacum cv Samsun were sliced with approximately 1 cm^2 size. The resulting explants were placed at standard MS medium for callus formation supplemented with phytohormones 0.5 mg/L 6-benzylaminopurine and 1 mg/L naphthylacetic acid. Test Petri plates were also supplemented with 0.6 μM SkQ1. Explants were cultivated in darkness for 5 weeks. During incubation callus was initially formed at wound explant surfaces.

[5] = test system: maize callus; assay: Morphogenetic processes in maize callus; assay type: cell-based
Protocol: as §1
Dose-dependent effect of SkQ1 on morphogenetic processes in maize callus was shown. […] Variations in green weight resulted mainly from amount of formed roots.

[6] = test system: Lucerne calli; assay: Callus growth and regeneration ability of lucerne calli; assay type: cell-based
Protocol: as §1
Lucerne calli were cultivated for 1 month in the presence of different SkQ1 concentrations (0-10 nM). Effect of SkQ1 on callus growth (weight change) and regeneration ability (formation of calli with “green areas”) were assessed.

[7] = test system: leaf potato explants; assay: Formation of shoots and roots from leaf potato explants; assay type: cell-based; details: 10 nM SkQ1, 10 days
Protocol: (§2) Effect of SkQ1 on formation shoots and roots from leaf potato explants and stem tomato explants was investigated. Explants were incubated for 10 days in the presence of 10 nM SkQ1 or with no SkQ1.

[8] = test system: stem tomato explants; assay: Formation of shoots and roots from stem tomato explants; assay type: cell-based; details: 10 nM SkQ1, 10 days
Protocol: as §2

[9] = test system: rice seeds; assay: Germination of rice seeds under water (anaerobic conditions); assay type: in vivo
Protocol: Effect of SkQ1 on germination of rice seeds under water (under anaerobic conditions) was studied. SkQ1 was added to water at concentrations of 0, 1, 3, 10, 30 nM.

[10] = test system: sugar cane calli; assay: Survival of sugar cane calli after anaerobic stress; assay type: cell-based; details: 48 hours anoxic, then aerobic medium with 10 nM SkQ1
Protocol: Effect of SkQ1 on survival of sugar cane calli following anaerobic stress was assessed. For this purpose, sugar cane calli were incubated for 48 hours under anoxic conditions and then were transferred under aerobic conditions at a nutrient medium containing 10 nM SkQ1or no SkQ1 (control).

[11] = test system: maize embryogenic callus; details: cited from earlier work
[12] = test system: isolated embryos; details: micromolar concentration; wheat; cited from earlier work
[13] = 1-10 nM SkQ1, one month of cultivation

Compound: C1=CC2C=CC1C2 [norbornadiene]
frequency of embryogenic callus formation [1]: stimulated embryogenic callus formation

Compound: xyloglucan pentasaccharide
enhancement of morphogenesis [2]: 1.5-2 fold

development of shoots on regeneration medium ([3]; 1000 nM SkQ1 in regeneration medium): destruction of shoots
growth oppression ([5]; high SkQ1 concentrations): No reliable growth oppression
Compound: CC1=C(C)C(=O)C(CCCCCCCCCC[P+](c2ccccc2)(c2ccccc2)c2ccccc2)=CC1=O.[Br-] [SkQ1]
onset of formation of shoots from calli ([3]; 10 nM SkQ1, control calli showed no shoot formation): 19 day of incubation
rooting of shoots and production of plants ([3]; 10 nM SkQ1, rootage medium, then water medium and ground): take roots properly and give normal viable plants
development of formed shoots on agarized regeneration medium ([3]; 10 nM SkQ1 in regeneration medium): continued to develop normally
development of shoots on regeneration medium ([3]; 100 nM SkQ1 in regeneration medium): termination of further development of shoots
shoot formation from undifferentiated tissue of sugar cane ([3]; FIG. 1): stimulates shoot formation
viability of shoots ([3]; formed and further cultivated at 100 nM or 1000 nM SkQ1): nonviable and died
onset of shoot formation from calli ([3]; higher SkQ1 concentrations (above 10 nM)): > 31 days
amount of calli with shoot formation ([3]; higher SkQ1 concentrations, compared with 10 nM): in lesser amount of calli
root formation from callus tissues ([4]; darkness, 5 weeks, controls showed no root formation): secondary differentiation of callus tissues with root formation; also recorded: stimulates root formation
state of differentiated explant tissues on further incubation ([4]; newly formed root tissues did well): necrotized and died
callus accretion (green weight) ([5]; 0-50 nM SkQ1): did not affect essentially callus accretion
amount of rhizogenic calli ([5]; 1-10 nM SkQ1): No reliable increase
average number of roots per callus ([5]; 1-10 nM SkQ1): increased significantly
average number of shoots per callus [5, 13]: increase of an average number of shoots per callus
inoculum fraction that forms shoots [5, 13]: increase of inoculum fraction that forms shoots
morphogenesis ([5]; SkQ1 at 20 nM and higher, shoot formation affected more than rhizogenesis): inhibited morphogenesis
rhizogenesis on repeated callus cultivation ([5]; repeated cultivation, same medium composition): even more pronounced amplification of rhizogenesis
callus growth (weight change) ([6]; 0-10 nM SkQ1, 1 month): does not affect significantly callus growth
stimulation of regeneration (formation of calli with green areas) ([6]; 5 nM SkQ1, 1 month): 2.5-3 fold
stimulation of regeneration ([6]; SkQ1 concentrations higher than 5 nM): positive effect eliminates
formation of shoots and roots [7]: significantly enhances formation of both shoots and roots
formation of shoots and roots [8]: significantly enhances formation of both shoots and roots
germination of rice seeds under water ([9]; 1 nM SkQ1 in water): enhance significantly germination; also recorded: dramatically enhances germination
germination of rice seeds under water ([9]; SkQ1 at concentrations higher than 1 nM (3, 10, 30 nM)): does not reveal such a stimulating effect
capability for morphogenesis after anaerobic stress [10]: retain capability for morphogenesis
survival of calli following anaerobic stress [10]: markedly higher capability for survival; also recorded: enhances resistance

Compound: O=[N+]([O-])[O-].[Ag+] [silver nitrate]
frequency of embryogenic callus formation [1]: stimulated embryogenic callus formation

Compound: NC1(C(=O)O)CC1 [1-aminocyclopropane-1-carboxylic acid]
decrease of a number of produced regenerants [1]: 68%
frequency of embryogenic callus formation [1]: significant reduction

Compound: O=C(O)[C@@H]1CCCN1 [proline]
number of regenerants per explant ([11]; 20 mM proline, 2.8 without): 7.6
increase of frequency of embryogenic callus formation and plant regeneration ([11]; 400 mg/L proline in medium): 2-3 fold

Compound: CC1=CC(=O)CC(C)(C)[C@@]1(O)/C=C/C(C)=C\C(=O)O [abscisic acid]
embryogenic callus formation [12]: stimulated embryogenic callus formation
